# Biological target: human SSTR2 (Homo sapiens (Human), UniProt P30874)
# Assay: Human SSTR2 intracellular cAMP functional assay for agonists (HTRF)
# Assay type: cell-based
# Conditions: not given
# Method: Functional Assay for SSTR2 Agonists
# General overview: All five SSTR subtypes are Gi coupled G-protein coupled receptors (GPCRs) that lead to decreases in intracellular cyclic AMP (cAMP) when activated by an agonist. […] Human SSTR2 intracellular cAMP assay is described below. The human SSTR1, 3, 4 and 5 assays follow the same protocol of SSTR2.
# The cells are cultured at 37° C., 5% CO2 and 95% humidity. […] The cells are incubated for 20 minutes at 37° C. […] The cells are treated with 50 μL of lysis buffer (HRTF cAMP kit, Cisbio). […] The time-resolved fluorescent signal is read with a Tecan M1000Pro multiplate reader. The intracellular cAMP concentrations are calculated by regression to a standard curve and are plotted vs. the concentration of the compounds of the invention and the EC50 of the compounds are calculated using standard methods. All data manipulations are in GraphPad Prism v6.
# human SSTR2, sequence (P30874 whole entry): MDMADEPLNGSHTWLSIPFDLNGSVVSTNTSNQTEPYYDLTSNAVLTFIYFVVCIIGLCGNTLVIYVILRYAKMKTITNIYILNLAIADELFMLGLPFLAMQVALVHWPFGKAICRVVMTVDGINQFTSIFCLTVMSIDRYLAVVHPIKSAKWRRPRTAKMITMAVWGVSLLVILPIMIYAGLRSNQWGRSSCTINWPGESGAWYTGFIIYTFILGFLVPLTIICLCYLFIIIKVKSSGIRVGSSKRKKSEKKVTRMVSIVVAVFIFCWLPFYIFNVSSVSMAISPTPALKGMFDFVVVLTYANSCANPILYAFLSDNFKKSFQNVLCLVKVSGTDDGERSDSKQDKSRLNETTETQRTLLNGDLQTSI
row,Compound,EC50
1,"CO/N=C/c1cccc(-c2ccc3ncc(-c4cc(F)cc(F)c4)c(N4CCC(N)CC4)c3c2)c1O [2-81, 2-[4-(4-aminopiperidin-1-yl)-3-(3,5-difluorophenyl)quinolin-6-yl]-6-methoxyiminomethyl-phenol]",< 10 nM
2,"COC(=O)[C@@H]1CN(c2c(-c3cc(F)cc(F)c3)cnc3ccc(-c4cccc(C#N)c4O)cc23)CC[C@H]1N (relative stereo) [2-170, methyl (trans)-4-amino-1-[6-(3-cyano-2-hydroxyphenyl)-3-(3,5-difluorophenyl)quinolin-4-yl]piperidine-3-carboxylate]",100 to 1000 nM
3,"N#Cc1cccc(-c2ccc3ncc(-c4cc(F)cc(F)c4)c(N4CCC(N)CC4)c3c2)c1OCC(=O)O [2-56, 2-{2-[4-(4-aminopiperidin-1-yl)-3-(3,5-difluorophenyl)quinolin-6-yl]-6-cyanophenoxy}acetic acid]",10 to 100 nM
4,"COCC(C)(C)NCC1CN(c2c(-c3cc(C)cc(F)c3)cnc3ccc(-c4cc(F)cc(C#N)c4O)cc23)C1 [2-39, 5-fluoro-3-[3-(3-fluoro-5-methylphenyl)-4-(3-{[(1-methoxy-2-methylpropan-2-yl)amino]methyl}azetidin-1-yl)quinolin-6-yl]-2-hydroxybenzonitrile]",100 to 1000 nM
5,"COc1cc(F)cc(-c2cnc3ccc(-c4cccc(F)c4NC(=O)N4CCC4)cc3c2N2CCC(N)CC2)c1 [2-175, N-{2-[4-(4-aminopiperidin-1-yl)-3-(3-fluoro-5-methoxyphenyl)quinolin-6-yl]-6-fluorophenyl}azetidine-1-carboxamide]",10 to 100 nM
6,"NC1CCN(c2c(-c3cc(F)cc(F)c3)cnc3ccc(-c4cncc(F)c4OC4COC4)cc23)CC1 [2-74, 1-[3-(3,5-difluorophenyl)-6-[5-fluoro-4-(oxetan-3-yloxy)pyridin-3-yl]quinolin-4-yl]piperidin-4-amine]",100 to 1000 nM
7,"N#Cc1cccc(-c2cnc3ncc(-c4cc(F)cc(F)c4)c(N4CCC(N)CC4)c3c2)c1O [4-1, 3-[5-(4-aminopiperidin-1-yl)-6-(3,5-difluorophenyl)-1,8-naphthyridin-3-yl]-2-hydroxybenzonitrile]",10 to 100 nM
8,"CNC(=O)[C@@H]1CN(c2c(-c3cc(F)cc(F)c3)cnc3ccc(-c4cccc(C#N)c4O)cc23)CC[C@H]1N (relative stereo) [2-149, trans-4-Amino-1-[6-(3-cyano-2-hydroxyphenyl)-3-(3,5-difluorophenyl)quinolin-4-yl]-N-methylpiperidine-3-carboxamide]",100 to 1000 nM

# Same assay, conditions: CHO-K1 cells stably expressing human SSTR2; NKH477-stimulated cAMP; read-out: EC50 (inhibition of cAMP activities via human SST2R)
row,Compound,EC50
1,"Nc1cncnc1-c1ccc2ncc(-c3cc(F)cc(F)c3)c(N3CC[C@H]4NCCO[C@@H]4C3)c2c1 (relative stereo) [2-255, 4-{4-[trans-octahydro-1H-pyrido[3,4-b]morpholin-6-yl]-3-(3,5-difluorophenyl)quinolin-6-yl}pyrimidin-5-amine]",10 to 100 nM
2,"Cc1cc(F)cc(-c2cnc3ccc(-c4cc(F)cc(C#N)c4O)cc3c2N2CC(CNCC(C)(C)O)C2)c1 [2-40, 5-fluoro-3-[3-(3-fluoro-5-methylphenyl)-4-(3-{[(2-hydroxy-2-methylpropyl)amino]methyl}azetidin-1-yl)quinolin-6-yl]-2-hydroxybenzonitrile]",< 10 nM
3,"COC(=O)Nc1c(F)cccc1-c1ccc2ncc(-c3cc(F)cc(OC)c3)c(N3CCC(N)CC3)c2c1 [2-173, methyl N-{2-[4-(4-aminopiperidin-1-yl)-3-(3-fluoro-5-methoxyphenyl)quinolin-6-yl]-6-fluorophenyl}carbamate]",< 10 nM
4,"N#Cc1cccc(-c2ccc3ncc(-c4cc(F)cc(F)c4)c(N4CCC(N)CC4)c3c2)c1OCCO [2-65, 3-[4-(4-aminopiperidin-1-yl)-3-(3,5-difluorophenyl)quinolin-6-yl]-2-(2-hydroxyethoxy)benzonitrile]",< 10 nM
5,"Cc1cc(F)cc(-c2cnc3ccc(-c4cccc5[nH]c(=O)[nH]c45)cc3c2N2CCC(N)CC2)c1 [2-8, 4-[4-(4-aminopiperidin-1-yl)-3-(3-fluoro-5-methylphenyl)quinolin-6-yl]-2,3-dihydro-1H-1,3-benzodiazol-2-one]",< 10 nM
6,"N#Cc1ccc(NC(=O)NOCC(F)(F)F)c(-c2ccc3ncc(-c4cc(F)cc(F)c4)c(N4CCC(N)CC4)c3c2)c1 [2-238, 1-{2-[4-(4-aminopiperidin-1-yl)-3-(3,5-difluorophenyl)quinolin-6-yl]-4-cyanophenyl}-3-(2,2,2-trifluoroethoxy)urea]",< 10 nM
7,"CCNCC1CN(c2c(-c3cc(C)cc(F)c3)cnc3ccc(-c4c(C)ccc(F)c4O)cc23)C1 [2-38, 2-(4-{3-[(ethylamino)methyl]azetidin-1-yl}-3-(3-fluoro-5-methylphenyl)quinolin-6-yl)-6-fluoro-3-methylphenol]",< 10 nM
8,"Cc1cc(F)cc(-c2cnc3ccc(-c4cc(F)c5[nH]c(=O)[nH]c5c4)nc3c2N2CCC(N)CC2)c1 [3-5, 6-[8-(4-aminopiperidin-1-yl)-7-(3-fluoro-5-methylphenyl)-1,5-naphthyridin-2-yl]-4-fluoro-2,3-dihydro-1H-1,3-benzodiazol-2-one]",< 10 nM
9,"Cc1cc(F)cc(-c2cnc3ccc(-c4ccc5[nH]c(=O)[nH]c5c4)cc3c2N2CCC(N)CC2)c1 [2-9, 5-[4-(4-aminopiperidin-1-yl)-3-(3-fluoro-5-methylphenyl)quinolin-6-yl]-2,3-dihydro-1H-1,3-benzodiazol-2-one]",< 10 nM
10,COC(=O)Nc1c(C#N)cc(F)c(F)c1-c1ccc2ncc(-c3cc(C)cc(F)c3)c(N3CCC(N)CC3)c2c1 [2-205],< 10 nM
11,"CONC(=O)Nc1c(F)cc(C#N)cc1-c1ccc2ncc(-c3cc(C)cc(F)c3)c(N3CCC(N)CC3)c2c1 [2-237, 1-{2-[4-(4-aminopiperidin-1-yl)-3-(3-fluoro-5-methylphenyl)quinolin-6-yl]-4-cyano-6-fluorophenyl}-3-methoxyurea]",< 10 nM
12,"COCCNc1ncc(C#N)cc1-c1ccc2ncc(-c3cc(C)cc(F)c3)c(N3CCC(N)CC3)c2c1 [2-242, 5-[4-(4-aminopiperidin-1-yl)-3-(3-fluoro-5-methylphenyl)quinolin-6-yl]-6-[(2-methoxyethyl)amino]pyridine-3-carbonitrile]",< 10 nM
13,"CONC(=O)Nc1c(F)cccc1-c1ccc2ncc(-c3cc(F)cc(OC)c3)c(N3CCC(N)CC3)c2c1 [2-174, 1-{2-[4-(4-aminopiperidin-1-yl)-3-(3-fluoro-5-methoxyphenyl)quinolin-6-yl]-6-fluorophenyl}-3-methoxyurea]",< 10 nM
14,"NC1CCN(c2c(-c3cc(F)cc(F)c3)cnc3ccc(-c4cc(F)c5[nH]c(=O)[nH]c5c4)nc23)CC1 [3-9, 6-[8-(4-aminopiperidin-1-yl)-7-(3,5-difluorophenyl)-1,5-naphthyridin-2-yl]-4-fluoro-2,3-dihydro-1H-1,3-benzodiazol-2-one]",< 10 nM
15,"Cn1ncc(-c2ccc3ncc(-c4cc(F)cc(F)c4)c(N4CCC(N)CC4)c3c2)c1C=NO [2-188, 1-[3-(3,5-difluorophenyl)-6-{5-[(hydroxyimino)methyl]-1-methyl-1H-pyrazol-4-yl}quinolin-4-yl]piperidin-4-amine]",< 10 nM
16,"CCCNCC1CN(c2c(-c3cc(C)cc(F)c3)cnc3ccc(-c4cc(F)cc(C#N)c4O)cc23)C1 [2-31, 5-fluoro-3-[3-(3-fluoro-5-methylphenyl)-4-{3-[(propylamino)methyl]azetidin-1-yl}quinolin-6-yl]-2-hydroxybenzonitrile]",< 10 nM
17,CON=Cc1cncc(-c2ccc3ncc(-c4cc(F)cc(F)c4)c(N4CC[C@H]5NCCO[C@@H]5C4)c3c2)c1N (relative stereo) [2-266],< 10 nM
18,"CON(C)C(=O)Nc1c(F)cccc1-c1ccc2ncc(-c3cc(C)cc(F)c3)c(N3CCC(N)CC3)c2c1 [2-210, 1-{2-[4-(4-aminopiperidin-1-yl)-3-(3-fluoro-5-methylphenyl)quinolin-6-yl]-6-fluorophenyl}-3-methoxy-3-methylurea]",< 10 nM
19,"CC(=O)OCCOc1c(C#N)cccc1-c1ccc2ncc(-c3cc(F)cc(F)c3)c(N3CCC(N)CC3)c2c1 [2-64, 2-{2-[4-(4-aminopiperidin-1-yl)-3-(3,5-difluorophenyl)quinolin-6-yl]-6-cyanophenoxy}ethyl acetate]",< 10 nM
20,"Cc1cc(F)cc(-c2cnc3ccc(-c4ccc5[nH]c(=O)[nH]c5c4)nc3c2N2CCC(N)CC2)c1 [3-4, 5-[8-(4-aminopiperidin-1-yl)-7-(3-fluoro-5-methylphenyl)-1,5-naphthyridin-2-yl]-2,3-dihydro-1H-1,3-benzodiazol-2-one]",< 10 nM
21,"COCCNc1ncc(F)cc1-c1ccc2ncc(-c3cc(C)cc(F)c3)c(N3CCC(N)CC3)c2c1 [2-234, 3-[4-(4-aminopiperidin-1-yl)-3-(3-fluoro-5-methylphenyl)quinolin-6-yl]-5-fluoro-N-(2-methoxyethyl)pyridin-2-amine]",< 10 nM
22,"N#Cc1cccc(-c2ccc3ncc(-c4cc(F)cc(F)c4)c(N4CC[C@@H](N)[C@H](C#N)C4)c3c2)c1O (relative stereo) [2-92, trans-4-amino-1-[6-(3-cyano-2-hydroxyphenyl)-3-(3,5-difluorophenyl)quinolin-4-yl]piperidine-3-carbonitrile]",100 to 1000 nM
23,"CCNCC1CN(c2c(-c3cc(C)cc(F)c3)cnc3ccc(-c4cc(F)cc(C(N)=O)c4)cc23)C1 [2-26, 3-(4-{3-[(ethylamino)methyl]azetidin-1-yl}-3-(3-fluoro-5-methylphenyl)quinolin-6-yl)-5-fluorobenzamide]",< 10 nM
24,"N#Cc1cc(F)cc(-c2ccc3ncc(-c4cc(F)cc(F)c4)c(N4CCC(N)CC4)c3c2)c1O [2-10, 3-[4-(4-aminopiperidin-1-yl)-3-(3,5-difluorophenyl)quinolin-6-yl]-5-fluoro-2-hydroxybenzonitrile]",< 10 nM
